In publication PMC13088180, “Chemical Proteomics Reveal the Inventory of Pyrroloquinoline Quinone Binding Proteins in Bacteria” (Journal of the American Chemical Society, 2026):

Tests used:
FklB = target: T1, FklB (Escherichia coli, UniProt P0A9L3); assay: UV/vis spectral shift; competition of PQQ4 labelling; format: binding; conditions: no covalent adduct by intact protein MS
T1 construct: recombinant from E. coli BL21, purified without PQQ
T1 sequence (P0A9L3 2-206): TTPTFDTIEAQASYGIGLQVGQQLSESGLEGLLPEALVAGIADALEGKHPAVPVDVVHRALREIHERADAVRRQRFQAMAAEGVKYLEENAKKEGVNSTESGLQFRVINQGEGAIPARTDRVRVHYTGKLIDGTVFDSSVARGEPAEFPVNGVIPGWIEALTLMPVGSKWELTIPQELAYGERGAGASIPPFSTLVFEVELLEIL

Tig (trigger factor) = target: T2, Tig (trigger factor) (Escherichia coli, UniProt P0A850); assay: UV/vis spectral shift; intact protein LC-MS; format: binding; conditions: covalent; 100 uM protein, 300 uM PQQ, 4 °C overnight
T2 construct: recombinant from E. coli BL21, purified without PQQ
T2 sequence (P0A850 1-432): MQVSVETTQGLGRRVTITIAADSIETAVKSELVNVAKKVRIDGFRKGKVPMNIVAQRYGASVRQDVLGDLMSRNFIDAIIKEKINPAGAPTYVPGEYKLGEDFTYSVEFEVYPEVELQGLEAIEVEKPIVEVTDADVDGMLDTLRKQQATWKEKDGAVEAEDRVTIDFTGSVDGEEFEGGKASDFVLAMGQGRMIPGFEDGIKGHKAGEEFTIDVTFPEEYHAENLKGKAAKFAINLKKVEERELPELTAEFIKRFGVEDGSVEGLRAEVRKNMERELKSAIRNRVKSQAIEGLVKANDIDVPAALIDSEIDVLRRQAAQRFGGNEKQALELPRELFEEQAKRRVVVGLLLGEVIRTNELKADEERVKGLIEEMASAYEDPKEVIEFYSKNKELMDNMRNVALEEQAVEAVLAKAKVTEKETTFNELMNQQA

RuvB = target: T3, RuvB (Escherichia coli, UniProt P0A812); assay: UV/vis spectral shift; intact protein MS; MS/MS site mapping; format: binding; conditions: covalent; lysine K26 (main) and K46; 100 uM protein, 300 uM PQQ, 4 °C overnight
T3 construct: recombinant from E. coli BL21, purified without PQQ
T3 sequence (P0A812 1-336): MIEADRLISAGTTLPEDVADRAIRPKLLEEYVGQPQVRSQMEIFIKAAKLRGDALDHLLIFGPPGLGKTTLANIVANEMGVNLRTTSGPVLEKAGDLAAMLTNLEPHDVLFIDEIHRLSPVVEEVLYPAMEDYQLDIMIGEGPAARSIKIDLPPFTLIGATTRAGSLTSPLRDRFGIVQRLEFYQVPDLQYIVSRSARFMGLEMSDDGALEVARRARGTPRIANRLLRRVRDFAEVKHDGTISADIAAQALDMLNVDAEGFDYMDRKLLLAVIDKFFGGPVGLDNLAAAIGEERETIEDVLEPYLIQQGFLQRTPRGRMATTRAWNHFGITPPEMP

PpiD = target: T4, PpiD (Pseudomonas putida, UniProt Q88KI6); assay: UV/vis spectral shift; intact protein LC-MS; format: binding; conditions: covalent; 100 uM protein, 300 uM PQQ, 4 °C overnight
T4 construct: gene PP_2304; recombinant from E. coli BL21, purified without PQQ
T4 sequence (Q88KI6 36-623): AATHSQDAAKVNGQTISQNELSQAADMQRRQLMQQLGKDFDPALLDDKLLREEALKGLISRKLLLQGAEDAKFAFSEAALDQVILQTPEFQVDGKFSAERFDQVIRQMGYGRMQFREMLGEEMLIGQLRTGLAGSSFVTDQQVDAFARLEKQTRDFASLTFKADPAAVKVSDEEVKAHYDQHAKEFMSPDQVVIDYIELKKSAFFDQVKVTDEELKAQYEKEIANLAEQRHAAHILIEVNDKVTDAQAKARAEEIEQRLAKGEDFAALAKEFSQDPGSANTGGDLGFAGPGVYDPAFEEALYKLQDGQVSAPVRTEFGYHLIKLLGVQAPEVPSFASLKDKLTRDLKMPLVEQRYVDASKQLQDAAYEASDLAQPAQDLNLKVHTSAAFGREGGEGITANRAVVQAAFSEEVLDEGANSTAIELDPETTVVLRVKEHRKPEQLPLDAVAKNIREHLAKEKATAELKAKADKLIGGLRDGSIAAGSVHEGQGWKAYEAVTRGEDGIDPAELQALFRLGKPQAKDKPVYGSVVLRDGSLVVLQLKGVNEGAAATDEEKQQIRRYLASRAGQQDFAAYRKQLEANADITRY

[1] = target: T5, MBP (maltose-binding protein) (Escherichia coli, UniProt P0AEX9); assay: UV/vis spectral shift; intact protein LC-MS; conditions: covalent; 100 uM protein, 300 uM PQQ, 4 °C overnight
T5 construct: gene malE; recombinant from E. coli BL21, purified without PQQ

[2] = target: T6, 6PGD / 6GPD (6-phosphogluconate dehydrogenase, decarboxylating) (Escherichia coli, UniProt P00350); assay: MS/MS closed search of +310 Da on lysine; format: biochemical; conditions: covalent; E. coli K-12 lysate 3.5 mg/mL, 2000 uM PQQ, 2000 uM CaCl2, 37 °C, 4 h
T6 construct: gene gnd; endogenous protein in E. coli K-12 lysate
T6 sequence (P00350 1-468): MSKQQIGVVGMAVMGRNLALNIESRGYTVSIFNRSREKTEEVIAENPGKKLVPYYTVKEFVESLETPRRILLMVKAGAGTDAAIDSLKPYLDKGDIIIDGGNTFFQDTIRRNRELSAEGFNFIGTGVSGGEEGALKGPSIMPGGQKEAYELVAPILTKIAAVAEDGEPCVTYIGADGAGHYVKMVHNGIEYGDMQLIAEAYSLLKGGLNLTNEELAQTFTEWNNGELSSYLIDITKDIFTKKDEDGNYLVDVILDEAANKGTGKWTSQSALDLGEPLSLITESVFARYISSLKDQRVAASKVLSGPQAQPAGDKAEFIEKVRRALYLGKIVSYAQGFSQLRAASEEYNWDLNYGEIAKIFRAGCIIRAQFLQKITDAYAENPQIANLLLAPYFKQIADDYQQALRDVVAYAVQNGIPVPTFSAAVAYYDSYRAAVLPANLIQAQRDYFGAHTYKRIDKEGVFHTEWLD

HtpG = target: T7, HtpG (Escherichia coli, UniProt P0A6Z3); assay: UV/vis spectral shift; intact protein LC-MS; format: binding; conditions: covalent; 100 uM protein, 300 uM PQQ, 4 °C overnight
T7 construct: recombinant from E. coli BL21, purified without PQQ; 73529 Da peak is a +135 Da adduct

SurA = target: T8, SurA (Escherichia coli, UniProt P0ABZ6); assay: UV/vis spectral shift; intact protein LC-MS; format: binding; conditions: covalent; 100 uM protein, 300 uM PQQ, 4 °C overnight
T8 construct: recombinant from E. coli BL21, purified without PQQ
T8 sequence (P0ABZ6 21-428): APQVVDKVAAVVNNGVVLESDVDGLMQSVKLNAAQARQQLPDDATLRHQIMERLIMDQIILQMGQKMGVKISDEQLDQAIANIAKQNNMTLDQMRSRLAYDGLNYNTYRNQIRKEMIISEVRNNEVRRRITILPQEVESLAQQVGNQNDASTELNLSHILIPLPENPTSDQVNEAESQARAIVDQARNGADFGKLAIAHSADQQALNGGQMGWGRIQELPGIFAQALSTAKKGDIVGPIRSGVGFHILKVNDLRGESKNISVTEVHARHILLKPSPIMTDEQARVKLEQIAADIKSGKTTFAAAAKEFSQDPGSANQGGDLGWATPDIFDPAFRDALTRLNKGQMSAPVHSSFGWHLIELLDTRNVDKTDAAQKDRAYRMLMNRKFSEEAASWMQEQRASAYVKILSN

PedH = target: T9, PedH (Pseudomonas putida, UniProt Q88JH0); conditions: 100 nM enzyme reconstituted with PQQ, 50 mM ethanol
T9 sequence (Q88JH0 28-595): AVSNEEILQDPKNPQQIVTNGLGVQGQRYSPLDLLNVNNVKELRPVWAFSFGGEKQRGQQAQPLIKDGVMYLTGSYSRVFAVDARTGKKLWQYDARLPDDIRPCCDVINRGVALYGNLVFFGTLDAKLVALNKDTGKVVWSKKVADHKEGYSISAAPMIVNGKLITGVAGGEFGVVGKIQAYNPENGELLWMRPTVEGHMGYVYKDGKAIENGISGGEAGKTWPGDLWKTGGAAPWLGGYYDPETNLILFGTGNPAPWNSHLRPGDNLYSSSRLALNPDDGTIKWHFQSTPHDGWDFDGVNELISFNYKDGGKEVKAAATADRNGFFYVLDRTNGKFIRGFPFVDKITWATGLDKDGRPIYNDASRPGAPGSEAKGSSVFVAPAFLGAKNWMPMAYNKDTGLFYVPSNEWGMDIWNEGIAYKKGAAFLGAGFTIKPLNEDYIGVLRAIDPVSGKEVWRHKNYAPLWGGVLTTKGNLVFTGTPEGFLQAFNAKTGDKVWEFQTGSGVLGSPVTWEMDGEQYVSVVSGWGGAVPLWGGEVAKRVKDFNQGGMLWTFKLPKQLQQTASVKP

YliI = target: T10, YliI (Escherichia coli, UniProt P75804); assay: coupled colorimetric assay; format: biochemical; conditions: 100 nM enzyme reconstituted with PQQ, 1.25 M glucose
T10 construct: recombinant, purified cofactor-free; details only in supplement
T10 sequence (P75804 21-371): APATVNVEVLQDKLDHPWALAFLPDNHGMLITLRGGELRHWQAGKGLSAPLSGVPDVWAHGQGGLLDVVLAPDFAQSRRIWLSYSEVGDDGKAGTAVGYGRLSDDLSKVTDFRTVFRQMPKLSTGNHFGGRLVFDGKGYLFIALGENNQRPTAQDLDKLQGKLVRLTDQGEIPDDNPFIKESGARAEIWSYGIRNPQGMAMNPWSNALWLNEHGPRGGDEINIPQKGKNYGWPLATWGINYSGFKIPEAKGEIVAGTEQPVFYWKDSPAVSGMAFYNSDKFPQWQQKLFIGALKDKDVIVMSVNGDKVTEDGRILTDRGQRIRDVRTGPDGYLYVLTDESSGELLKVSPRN

T7 sequence (P0A6Z3 whole entry): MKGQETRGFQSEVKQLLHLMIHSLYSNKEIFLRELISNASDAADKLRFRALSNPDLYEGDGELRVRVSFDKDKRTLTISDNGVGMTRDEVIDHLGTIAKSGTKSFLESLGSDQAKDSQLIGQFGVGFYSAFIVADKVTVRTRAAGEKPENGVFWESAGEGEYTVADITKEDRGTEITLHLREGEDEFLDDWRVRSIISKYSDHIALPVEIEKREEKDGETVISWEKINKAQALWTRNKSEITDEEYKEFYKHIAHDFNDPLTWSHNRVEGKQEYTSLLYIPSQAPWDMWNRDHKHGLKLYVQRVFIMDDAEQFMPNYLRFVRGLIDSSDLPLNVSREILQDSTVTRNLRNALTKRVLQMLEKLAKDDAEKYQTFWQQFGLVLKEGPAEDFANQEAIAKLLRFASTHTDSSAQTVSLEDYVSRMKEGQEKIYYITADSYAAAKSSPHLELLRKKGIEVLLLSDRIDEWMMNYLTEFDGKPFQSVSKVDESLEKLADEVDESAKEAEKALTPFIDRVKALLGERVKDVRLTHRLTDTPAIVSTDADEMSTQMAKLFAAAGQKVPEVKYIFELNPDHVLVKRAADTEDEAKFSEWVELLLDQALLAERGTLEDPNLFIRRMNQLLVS

## O=C(O)c1cc(C(=O)O)c2c(n1)C(=O)C(=O)c1cc(C(=O)O)[nH]c1-2 [PQQ, Pyrroloquinoline quinone]
FklB
  UV/vis spectral shift; competition of PQQ4 labelling: addition of the cofactor revealed characteristic spectroscopic shifts comparable to those of YliI and PedH
Tig (trigger factor)
  +310 Da mass shift: covalent PQQ binding in the case of Tig, HtpG, MBP, RuvB, SurA, and PpiD
RuvB
  +310 Da mass shift: confirming K26 as the predominant covalent binding site
PpiD
  +310 Da mass shift: covalent PQQ binding in the case of Tig, HtpG, MBP, RuvB, SurA, and PpiD
[1]
  +310 Da mass shift: covalent PQQ binding in the case of Tig, HtpG, MBP, RuvB, SurA, and PpiD
[2]
  mass shift: confirmed Tig and 6GPD as covalent binding protein hits
HtpG
  +310 Da mass shift: covalent PQQ binding in the case of Tig, HtpG, MBP, RuvB, SurA, and PpiD
SurA
  +310 Da mass shift: covalent PQQ binding in the case of Tig, HtpG, MBP, RuvB, SurA, and PpiD

## CCO [ethanol]
PedH
  coupled colorimetric assay: Ethanol dehydrogenase activity of PedH reconstituted with PQQ or PQQ probes was measured

## OC[C@H]1OC(O)[C@H](O)[C@@H](O)[C@@H]1O (stereo partly shown) [glucose]
YliI
  coupled colorimetric assay: Glucose dehydrogenase activity of YliI reconstituted with PQQ or PQQ probes was measured
